Test results reported in patent US20090203737A1, “Pyrrole Derivatives as Positive Allosteric Modulators of Metabotropic Receptors” (priority 2005, published 2009).
“And” between values parts separate entries of the source, which are not always exact repeats. Equal values may be shown once.

Target: T1, rat mGluR5 receptor (Rattus norvegicus, UniProt P31424)
T1 construct: expressed in transfected cells
Assay: mGluR5 assay on HEK-expressing rat mGluR5 (fluorescent cell based Ca2+ mobilization assay)
Settings: HEK-293 cells stably expressing rat mGluR5; no co-addition of glutamate; mean of at least three independent experiments in duplicate; read-out: Ca++ Flux (mean EC50)
Protocol: Positive functional expression of HEK-293 cells stably expressing rat mGluR5 receptor was determined by measuring intracellular Ca^2+ changes using a Fluorometric Imaging Plate Reader (FLIPR, Molecular Devices, Sunnyvale, Calif.) in response to glutamate or selective known mGluR5 agonists and antagonists. Rat mGluR5 RT-PCR products in HEK-293 cells were sequenced and found 100% identical to rat mGluR5 Genbank reference sequence (NM_017012). HEK-293 cells expressing rmGluR5 were maintained in media containing DMEM, dialyzed Fetal Bovine Serum (10%), Glutamax™ (2 mM), Penicillin (100 units/ml), Streptomycin (100 μg/ml), Geneticin (100 μg/ml) and Hygromycin-B (40 μg/ml) at 37° C./5% CO2.
After one day of incubation, cells were washed with assay buffer containing: 142 mM NaCl, 6 mM KCl, 1 mM […], 1 mM CaCl2, 20 mM HEPES, 1 g/L glucose, 0.125 mM sulfinpyrazone, pH 7.4. After 60 min of loading with 4 uM Fluo-4 (TefLabs, Austin, Tex.), the cells were washed three times with 50 μl of PBS Buffer and resuspended in 45 μl of assay Buffer. The plates were then transferred to a Fluorometric Imaging Plate Reader (FLIPR, Molecular Devices, Sunnyvale, Calif.) for the assessment of intracellular calcium flux. After monitoring the baseline fluorescence for 10 seconds, increasing concentrations of representative compound (from 0.01 to 60 μM) of the present invention diluted in Assay Buffer (15 μl of 4× dilutions) was added to the cell. The final DMSO concentration in the assay was 0.3%. In each experiment, fluorescence was then monitored as a function of time for 3 minutes and the data analyzed using Microsoft Excel and GraphPad Prism. Each data point was also measured two times.
Under these experimental conditions, this HEK-rat mGluR5 cell line is able to directly detect positive allosteric modulators without the need of co-addition of glutamate or mGluR5 agonist.
The concentration-response curves of representative compounds of the present invention were generated using the Prism GraphPad software (Graph Pad Inc, San Diego, USA). The curves were fitted to a four-parameter logistic equation:
(Y=Bottom+(Top−Bottom)/(1+10̂((LogEC50−X)*Hill Slope)
allowing determination of EC50 values.
The Table 1 below represents the mean EC50 obtained from at least three independent experiments of selected molecules performed in duplicate.

T1 sequence (P31424 21-1171 isoform P31424-2 limits assumed): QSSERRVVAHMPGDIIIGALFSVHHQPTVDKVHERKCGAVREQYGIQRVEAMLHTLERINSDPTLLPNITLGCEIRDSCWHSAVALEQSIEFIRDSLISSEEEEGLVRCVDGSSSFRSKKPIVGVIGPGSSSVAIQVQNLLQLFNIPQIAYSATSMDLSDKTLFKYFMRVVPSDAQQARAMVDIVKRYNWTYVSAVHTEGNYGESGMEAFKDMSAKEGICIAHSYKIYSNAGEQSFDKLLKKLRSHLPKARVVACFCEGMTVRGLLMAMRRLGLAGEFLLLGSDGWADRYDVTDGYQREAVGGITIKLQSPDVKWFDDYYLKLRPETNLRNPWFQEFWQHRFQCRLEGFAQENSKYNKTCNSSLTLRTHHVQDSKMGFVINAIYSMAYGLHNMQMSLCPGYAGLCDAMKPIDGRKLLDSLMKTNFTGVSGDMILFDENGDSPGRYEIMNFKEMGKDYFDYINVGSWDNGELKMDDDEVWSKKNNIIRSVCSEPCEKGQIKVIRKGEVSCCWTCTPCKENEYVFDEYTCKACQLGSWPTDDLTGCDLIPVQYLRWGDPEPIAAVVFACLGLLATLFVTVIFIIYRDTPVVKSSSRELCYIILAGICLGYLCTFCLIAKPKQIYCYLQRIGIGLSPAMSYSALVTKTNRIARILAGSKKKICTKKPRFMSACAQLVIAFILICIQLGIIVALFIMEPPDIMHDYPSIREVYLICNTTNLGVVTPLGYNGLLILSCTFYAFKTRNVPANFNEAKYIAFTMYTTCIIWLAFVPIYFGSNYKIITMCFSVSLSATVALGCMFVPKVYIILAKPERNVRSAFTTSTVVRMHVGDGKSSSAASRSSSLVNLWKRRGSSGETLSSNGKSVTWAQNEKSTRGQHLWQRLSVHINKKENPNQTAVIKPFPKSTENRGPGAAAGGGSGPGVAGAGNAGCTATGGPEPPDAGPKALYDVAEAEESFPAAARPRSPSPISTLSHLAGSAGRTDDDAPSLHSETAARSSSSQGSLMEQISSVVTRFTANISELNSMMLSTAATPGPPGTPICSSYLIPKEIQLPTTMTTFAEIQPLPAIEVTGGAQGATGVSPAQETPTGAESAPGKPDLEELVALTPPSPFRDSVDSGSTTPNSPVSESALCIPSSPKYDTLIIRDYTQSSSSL

Structure (SMILES) | EC50
O=C(c1ccc(F)cc1F)N1CCC[C@H](c2nc(-c3ccc[nH]3)no2)C1 [Example 2, (2,4-Difluoro-phenyl)-((S)-3-[3-(1H-pyrrol-2-yl)-[1,2,4]oxadiazol-5-yl]-piperidin-1-yl)-methanone] | < 1000 nM
O=C(c1ccc(F)c(F)c1)N1CCC[C@H](c2nc(-c3ccc[nH]3)no2)C1 [Example 3, (3,4-Difluoro-phenyl)-{(S)-3-[3-(1H-pyrrol-2-yl)-[1,2,4]oxadiazol-5-yl]-piperidin-1-yl}-methanone] | < 1000 nM
O=C(c1ccc(F)cc1F)N1CCC[C@H](c2nc(-c3cc4ccccc4[nH]3)no2)C1 [Example 12, (2,4-Difluoro-phenyl)-{(S)-3-[3-(1H-indol-2-yl)-[1,2,4]oxadiazol-5-yl]-piperidin-1-yl}-methanone] | 1000 to 10000 nM
O=C(c1ccc(F)cc1)N1CCCC(c2noc(-c3ccn[nH]3)n2)C1 (stereo not drawn) [Example 13, (4-Fluoro-phenyl)-{3-[5-(2H-pyrazol-3-yl)-[1,2,4]oxadiazol-3-yl]-piperidin-1-yl}-methanone] | > 10000 nM
O=C(c1ccc(F)c(F)c1)N1CCCC(c2noc(-c3ccn[nH]3)n2)C1 (stereo not drawn) [Example 14, (3,4-Difluoro-phenyl)-{3-[5-(2H-pyrazol-3-yl)-[1,2,4]oxadiazol-3-yl]-piperidin-1-yl}-methanone] | > 10000 nM
O=C(c1ccc(F)cc1)N1CCC[C@H](c2nc(-c3cc4ccccc4[nH]3)no2)C1 [Example 16, (4-Fluoro-phenyl)-{(S)-3-[3-(1H-indol-2-yl)-[1,2,4]oxadiazol-5-yl]-piperidin-1-yl}-methanone] | 1000 to 10000 nM
O=C(c1ccc(F)cc1)N1CCCC(c2noc(-c3ncc[nH]3)n2)C1 (stereo not drawn) [Example 17, (4-Fluoro-phenyl)-{3-[5-(1H-imidazol-2-yl)-[1,2,4]oxadiazol-3-yl]-piperidin-1-yl}-methanone] | 1000 to 10000 nM
O=C(c1ccc(F)cc1)N1CCC[C@H](c2nc(-c3ncc[nH]3)no2)C1 [Example 24, (4-Fluoro-phenyl)-{(S)-3-[3-(1H-imidazol-2-yl)-[1,2,4]oxadiazol-5-yl]-piperidin-1-yl}-methanone] | 1000 to 10000 nM
Cc1c[nH]c(-c2nc([C@H]3CCCN(C(=O)c4ccc(F)nc4)C3)no2)c1 [Example 28, (6-Fluoro-pyridin-3-yl)-{(S)-3-[5-(4-methyl-1H-pyrrol-2-yl)-[1,2,4]oxadiazol-3-yl]-piperidin-1-yl}-methanone] | < 1000 nM
Cc1c[nH]c(-c2nc([C@H]3CCCN(C(=O)c4cnoc4C)C3)no2)c1 [Example 29, (5-Methyl-isoxazol-4-yl)-{(S)-3-[5-(4-methyl-1H-pyrrol-2-yl)-[1,2,4]oxadiazol-3-yl]-piperidin-1-yl}-methanone] | < 1000 nM
Cc1c[nH]c(-c2nc([C@H]3CCCN(C(=O)c4ccnc(F)c4)C3)no2)c1 [Example 30, (2-Fluoro-pyridin-4-yl)-{(S)-3-[5-(4-methyl-1H-pyrrol-2-yl)-[1,2,4]oxadiazol-3-yl]-piperidin-1-yl}-methanone] | < 1000 nM
Cc1c[nH]c(-c2noc([C@H]3CCCN(C(=O)c4ccc(F)nc4)C3)n2)c1 [Example 33, (6-Fluoro-pyridin-3-yl)-{(S)-3-[3-(4-methyl-1H-pyrrol-2-yl)-[1,2,4]oxadiazol-5-yl]-piperidin-1-yl}-methanone] | < 1000 nM
Cc1c[nH]c(-c2noc([C@H]3CCCN(C(=O)c4ccnc(F)c4)C3)n2)c1 [Example 34, (2-Fluoro-pyridin-4-yl)-{(S)-3-[3-(4-methyl-1H-pyrrol-2-yl)-[1,2,4]oxadiazol-5-yl]-piperidin-1-yl}-methanone] | < 1000 nM
Cc1c[nH]c(-c2noc([C@H]3CCCN(C(=O)c4cnoc4C)C3)n2)c1 [Example 35, (5-Methyl-isoxazol-4-yl)-{(S)-3-[3-(4-methyl-1H-pyrrol-2-yl)-[1,2,4]oxadiazol-5-yl]-piperidin-1-yl}-methanone] | < 1000 nM
Cc1ccc(-c2nc([C@H]3CCCN(C(=O)c4ccc(F)cc4)C3)no2)[nH]1 [Example 38, (4-Fluoro-phenyl)-{(S)-3-[5-(5-methyl-1H-pyrrol-2-yl)-[1,2,4]oxadiazol-3-yl]-piperidin-1-yl}-methanone] | 1000 to 10000 nM
O=C(c1ccc(F)cc1)N1CCC[C@H](c2noc(-c3cc(Cl)c[nH]3)n2)C1 [Example 39, {(S)-3-[5-(4-Chloro-1H-pyrrol-2-yl)-[1,2,4]oxadiazol-3-yl]-piperidin-1-yl}-(4-fluoro-phenyl)-methanone] | < 1000 nM
O=C(c1ccc(F)nc1)N1CCC[C@H](c2noc(-c3cc(Cl)c[nH]3)n2)C1 [Example 40, {(S)-3-[5-(4-Chloro-1H-pyrrol-2-yl)-[1,2,4]oxadiazol-3-yl]-piperidin-1-yl}-(6-fluoro-pyridin-3-yl)-methanone] | < 1000 nM
O=C(c1ccnc(F)c1)N1CCC[C@H](c2noc(-c3cc(Cl)c[nH]3)n2)C1 [Example 41, {(S)-3-[5-(4-Chloro-1H-pyrrol-2-yl)-[1,2,4]oxadiazol-3-yl]-piperidin-1-yl}-(2-fluoro-pyridin-4-yl)-methanone] | < 1000 nM
Cc1oncc1C(=O)N1CCC[C@H](c2noc(-c3cc(Cl)c[nH]3)n2)C1 [Example 42, {(S)-3-[5-(4-Chloro-1H-pyrrol-2-yl)-[1,2,4]oxadiazol-3-yl]-piperidin-1-yl}-(5-methyl-isoxazol-4-yl)-methanone] | < 1000 nM
O=C(c1ccc(F)cc1)N1CCC[C@H](c2nc(-c3cc(Cl)c[nH]3)no2)C1 [Example 43, {(S)-3-[3-(4-Chloro-1H-pyrrol-2-yl)-[1,2,4]oxadiazol-5-yl]-piperidin-1-yl}-(4-fluoro-phenyl)-methanone] | < 1000 nM
O=C(c1ccc(F)nc1)N1CCC[C@H](c2noc(-c3cc(Br)c[nH]3)n2)C1 [Example 44, {(S)-3-[5-(4-Bromo-1H-pyrrol-2-yl)-[1,2,4]oxadiazol-3-yl]-piperidin-1-yl}-(6-fluoro-pyridin-3-yl)-methanone] | < 1000 nM and > 10000 nM
O=C(c1ccc(F)cc1)N1CCC[C@H](c2nc(-c3cc(Br)c[nH]3)no2)C1 [Example 45, {(S)-3-[3-(4-Bromo-1H-pyrrol-2-yl)-[1,2,4]oxadiazol-5-yl]-piperidin-1-yl}-(4-fluoro-phenyl)-methanone] | < 1000 nM
O=C(c1ccc(F)nc1)N1CCC[C@H](c2nc(-c3cc(Br)c[nH]3)no2)C1 [Example 46, {(S)-3-[3-(4-Bromo-1H-pyrrol-2-yl)-[1,2,4]oxadiazol-5-yl]-piperidin-1-yl}-(6-fluoro-pyridin-3-yl)-methanone] | < 1000 nM
CC1(C)CC(c2nc(-c3ccc[nH]3)no2)CN(C(=O)c2ccc(F)cc2)C1 (stereo not drawn) [Example 49, {3,3-Dimethyl-5-[3-(1H-pyrrol-2-yl)-[1,2,4]oxadiazol-5-yl]-piperidin-1-yl}-(4-fluoro-phenyl)-methanone] | 1000 to 10000 nM
O=C(c1ccc(F)nc1)N1CCC[C@H](c2nc(-c3cc(F)c[nH]3)no2)C1 [Example 52, (6-Fluoro-pyridin-3-yl)-{(S)-3-[3-(4-fluoro-1H-pyrrol-2-yl)-[1,2,4]oxadiazol-5-yl]-piperidin-1-yl}-methanone] | < 1000 nM
O=C(c1ccnc(F)c1)N1CCC[C@H](c2nc(-c3cc(F)c[nH]3)no2)C1 [Example 53, (2-Fluoro-pyridin-4-yl)-{(S)-3-[3-(4-fluoro-1H-pyrrol-2-yl)-[1,2,4]oxadiazol-5-yl]-piperidin-1-yl}-methanone] | < 1000 nM
O=C(c1ccc(F)cc1)N1CCC[C@H](n2nnc(-c3ccc[nH]3)n2)C1 [Example 54, (4-Fluoro-phenyl)-{(S)-3-[5-(1H-pyrrol-2-yl)-tetrazol-2-yl]-piperidin-1-yl}-methanone] | < 1000 nM
O=C(c1ccc(F)cc1)N1CCC[C@H](c2noc(-c3nc(C(F)(F)F)c[nH]3)n2)C1 [Example 55, (4-Fluoro-phenyl)-{(S)-3-[5-(4-trifluoromethyl-1H-imidazol-2-yl)-[1,2,4]oxadiazol-3-yl]-piperidin-1-yl}-methanone] | 1000 to 10000 nM
O=C(c1ccc(F)cc1)N1CCC(c2nc(-c3ccc[nH]3)no2)C1 (stereo not drawn) [Example 57, (4-Fluoro-phenyl)-{3-[3-(1H-pyrrol-2-yl)-[1,2,4]oxadiazol-5-yl]-pyrrolidin-1-yl}-methanone] | 1000 to 10000 nM
Cc1c[nH]c(-c2nc([C@H]3CCCN(C(=O)c4ccncc4F)C3)no2)c1 [Example 58, (3-Fluoro-pyridin-4-yl)-{(S)-3-[5-(4-methyl-1H-pyrrol-2-yl)-[1,2,4]oxadiazol-3-yl]-piperidin-1-yl}-methanone] | < 1000 nM
